Data: patent publication US5272152A, “Purinyl and pyrimidinyl tetrahydrofurans” (priority 1991, dated 1993)
≈ marks a conversion by molar mass, not a printed value. Like-named read-outs stand apart in the source and are kept apart here.

Tests used:
VZV = VZV antiviral assay: plaque reduction in WI-38 cell culture monolayers; format: cell-based, varicella zoster virus, strain ELLEN; settings: Human alphaherpesvirus 3, 156 h; WI-38 cells; at least 50% plaque reduction vs virus controls; 6-7 days at 37° C.; read-out: ID50 VZV
Experimental: (§1) Assays were performed in cell culture systems to determine the concentrations of compounds that are effective in preventing several kinds of viral infections.
(§2) HSV-1 (herpes simplex virus type 1, strain Schooler), HSV-2 (herpes simplex virus type 2, strain 186), VZV (varicella zoster virus, strain ELLEN).
(§3) HSV-1, HSV-2, and VZV antiviral assays: Virus was adsorbed to WI-38 cell culture monolayers in 6 well culture plates (Costar, Cambridge, Mass.) for 1 hour prior to addition of maintenance medium containing duplicate dilutions of the test compound. Inhibition of plaque development was evaluated on fixed and stained monolayers after 4 days incubation at 37° C. for HSV-1 and HSV-2 and after 6-7 days incubation at 37° C. for VZV. ID50 values were determined from the drug concentration which conferred at least a 50% plaque reduction compared to virus controls (Table 1).

HSV-1 = HSV-1 antiviral assay: plaque reduction in WI-38 cell culture monolayers; format: cell-based, herpes simplex virus type 1, strain Schooler; settings: read-out: ID50 HSV-1
Experimental: as §1, §2, §3

HSV-2 = HSV-2 antiviral assay: plaque reduction in WI-38 cell culture monolayers; format: cell-based, herpes simplex virus type 2, strain 186; settings: read-out: ID50 HSV-2
Experimental: as §1, §2, §3

[1] = Human alphaherpesvirus 1, 96 h, WI-38 cells, at least 50% plaque reduction vs virus controls, 4 days at 37° C.
[2] = Human alphaherpesvirus 2, 96 h, WI-38 cells, at least 50% plaque reduction vs virus controls, 4 days at 37° C.

SMILES | IC50 (VZV) | IC50 (HSV-1; [1]) | IC50 (HSV-2; [2]) | IC50 (HSV-1; Human alphaherpesvirus 1, WI-38, 96 h) | IC50 (HSV-2; Human alphaherpesvirus 2, WI-38, 96 h)
Nc1nc2c(ncn2[C@@H]2CO[C@H](CO)[C@H]2O)c(=O)[nH]1 | 50 to 100 µg/mL (≈ 187 to 374 µM) | 2 to 5 µg/mL (≈ 7.48 to 18.7 µM) | 2 µg/mL (≈ 7.48 µM) | – | –
Nc1ccn([C@@H]2CO[C@H](CO)[C@H]2O)c(=O)n1 [[3R-(3α,4β,5α)]-4-Amino-1-[tetrahydro-4-hydroxy-5-(hydroxymethyl)-3-furanyl]-2(1H)-pyrimidinone] | 25 to 50 µg/mL (≈ 110 to 220 µM) | – | – | > 100 µg/mL | > 100 µg/mL
Cc1cn([C@@H]2CO[C@H](CO)[C@H]2O)c(=O)[nH]c1=O [[3R-(3α,4β,5α)]-5-Methyl-1-[tetrahydro-4-hydroxy-5-(hydroxymethyl)-3-furanyl]2,4(1H,3H)pyrimidinedione] | > 100 µg/mL | 10 µg/mL (≈ 41.3 µM) | > 100 µg/mL | – | –
